Reference: the supplement of paper PMC11451515

How the values were obtained:
SEM cells [1] = assay: AUC of viability dose-response curve (% viability x log10 dose units); higher = less sensitive; settings: 48 h
Procedure, shortened: (§1)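 In 1536-well plates, leukemia cells adapted to each medium (500 or 1000 cells/well) were exposed for 48 h at 37°C to library compounds in DMSO across 11 threefold doses, 47 μM down to 0.79 nM. Viability was read by CellTiter-Glo One luminescence and normalised per plate to DMSO and cell-free wells. A four-parameter log-logistic fit over log10 doses was integrated by trapezoidal rule. This yielded the area under the curve, with over-full-viability curves scaled and quality-control failures dropped.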

NOMO1 = assay: as above; settings: 48 h
Procedure, shortened: as §1

P12-Ichikawa [2] = assay: as above; settings: 48 h
Procedure, shortened: as §1

SEM cells [3] = assay: cell viability relative to DMSO control; higher = less cytotoxic; settings: 48 h
Procedure, shortened: (§2)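 Leukemia cells (NOMO1 or SEM, 500 cells/well; P12-Ichikawa, 1000 cells/well) were seeded in 5 μl in 1536-well plates after at least four passages of adaptation to each medium. They received library compounds in DMSO by pin dosing, 11 threefold points from 47 μM to 0.79 nM. Luminescence with CellTiter-Glo One was read after 48 h at 37°C. Viability is stated per plate relative to DMSO wells, with cell-free wells as background.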

P12-Ichikawa [4] = assay: as above; settings: HPLM + 10% dialyzed FBS, 48 h
Procedure, shortened: as §2

O=C(O)C1CCCN(CCC=C(c2ccccc2)c2ccccc2)C1 (centres undefined)
AUC of viability dose-response curve
Settings | NOMO1 | P12-Ichikawa [2] | SEM cells [1]
HPLM + 10% dialyzed FBS | 425 | 469 | 463
RPMI 5 mM glucose + 10% FBS | 453 | 459 | 462
RPMI 5 mM glucose + 10% dialyzed FBS | 465 | 474 | 464

Clc1ccccc1CN1CCc2sccc2C1
Settings | AUC of viability dose-response curve | cell viability [%]
NOMO1, HPLM + 10% dialyzed FBS | 323 | –
NOMO1, RPMI 5 mM glucose + 10% FBS | 315 | –
NOMO1, RPMI 5 mM glucose + 10% dialyzed FBS | 322 | –
P12-Ichikawa [2], HPLM + 10% dialyzed FBS | 348 | –
P12-Ichikawa [2], RPMI 5 mM glucose + 10% FBS | 340 | –
P12-Ichikawa [2], RPMI 5 mM glucose + 10% dialyzed FBS | 373 | –
P12-Ichikawa [4], 0.000781 µM | – | 120
P12-Ichikawa [4], 0.00234 µM | – | 121
P12-Ichikawa [4], 0.00702 µM | – | 117
P12-Ichikawa [4], 0.0211 µM | – | 130
P12-Ichikawa [4], 0.0632 µM | – | 129
P12-Ichikawa [4], 0.19 µM | – | 132
P12-Ichikawa [4], 0.569 µM | – | 129
P12-Ichikawa [4], 1.71 µM | – | 59.8
P12-Ichikawa [4], 5.12 µM | – | 15.5
P12-Ichikawa [4], 15.4 µM | – | 14.4
P12-Ichikawa [4], 46.1 µM | – | 16.7
SEM cells [1], HPLM + 10% dialyzed FBS | 453 | –
SEM cells [1], RPMI 5 mM glucose + 10% FBS | 459 | –
SEM cells [1], RPMI 5 mM glucose + 10% dialyzed FBS | 460 | –

SEM cells [3], RPMI 5 mM glucose + 10% FBS
Settings | cell viability [%]
0.000781 µM | 94.3
0.00234 µM | 148
0.00702 µM | 120
0.0211 µM | 139
0.0632 µM | 133
0.19 µM | 152
0.569 µM | 135
1.71 µM | 141
5.12 µM | 144
15.4 µM | 140
46.1 µM | 33.3

Nc1cc(c(cc1S(=O)(N)=O)S(N)(=O)=O)C(/Cl)=C(/Cl)Cl
AUC of viability dose-response curve
Settings | NOMO1 | P12-Ichikawa [2] | SEM cells [1]
HPLM + 10% dialyzed FBS | 344 | 335 | 396
RPMI 5 mM glucose + 10% FBS | 399 | 396 | 363
RPMI 5 mM glucose + 10% dialyzed FBS | 406 | 390 | 379

SEM cells [3], HPLM + 10% dialyzed FBS
Settings | cell viability [%]
0.000781 µM | 110
0.00234 µM | 124
0.00702 µM | 140
0.0211 µM | 124
0.0632 µM | 128
0.19 µM | 120
0.569 µM | 132
1.71 µM | 126
5.12 µM | 86.4
15.4 µM | 10.4
46.1 µM | 9.94

CC(=O)OC\C1=C(\[N@]2[C@@H](SC1)[C@H](N)C2=O)C(O)=O
AUC of viability dose-response curve
Settings | NOMO1 | P12-Ichikawa [2] | SEM cells [1]
HPLM + 10% dialyzed FBS | 330 | 346 | 462
RPMI 5 mM glucose + 10% FBS | 306 | 348 | 473
RPMI 5 mM glucose + 10% dialyzed FBS | 324 | 370 | 470

SEM cells [3], HPLM + 10% dialyzed FBS
Settings | cell viability [%]
0.000781 µM | 104
0.00234 µM | 111
0.00702 µM | 119
0.0211 µM | 120
0.0632 µM | 123
0.19 µM | 141
0.569 µM | 129
1.71 µM | 138
5.12 µM | 125
15.4 µM | 126
46.1 µM | 97.1

O=C1CC[C@@]2(O)[C@H]3Cc4ccc(O)c5c4[C@@]2(CCN3CC2CC2)[C@H]1O5
AUC of viability dose-response curve
Settings | NOMO1 | P12-Ichikawa [2] | SEM cells [1]
HPLM + 10% dialyzed FBS | 419 | 459 | 469
RPMI 5 mM glucose + 10% FBS | 411 | 474 | 451
RPMI 5 mM glucose + 10% dialyzed FBS | 434 | 469 | 463

CCCCC[C@H](O)/C=C/[C@H]1[C@H](O)CC(=O)[C@@H]1C/C=C\CCCC(=O)O
AUC of viability dose-response curve
Settings | NOMO1 | P12-Ichikawa [2] | SEM cells [1]
HPLM + 10% dialyzed FBS | 449 | 460 | 456
RPMI 5 mM glucose + 10% FBS | 453 | 457 | 458
RPMI 5 mM glucose + 10% dialyzed FBS | 440 | 457 | 460

CC(=O)Nc1sc2c(c1-c1nc3ccccc3s1)CNC2
AUC of viability dose-response curve
Settings | NOMO1 | P12-Ichikawa [2] | SEM cells [1]
HPLM + 10% dialyzed FBS | 386 | 463 | 437
RPMI 5 mM glucose + 10% FBS | 462 | 452 | 443
RPMI 5 mM glucose + 10% dialyzed FBS | 384 | 453 | 439

CC1=C(CC/C(C)=C/CCC2=CCC(C3=CC(=O)OC3O)OC2O)C(C)(C)CCC1 (centres undefined)
AUC of viability dose-response curve
Settings | HPLM + 10% dialyzed FBS | RPMI 5 mM glucose + 10% FBS | RPMI 5 mM glucose + 10% dialyzed FBS
NOMO1 | 434 | 469 | 466
P12-Ichikawa [2] | 457 | 434 | 443

cell viability [%], SEM cells [3]
Settings | HPLM + 10% dialyzed FBS | RPMI 5 mM glucose + 10% dialyzed FBS
0.000781 µM | 115 | 121
0.00234 µM | 129 | 124
0.00702 µM | 114 | 119
0.0211 µM | 129 | 112
0.0632 µM | 46.6 | 27.5
0.19 µM | 125 | 132
0.569 µM | 138 | 148
1.71 µM | 127 | 115
5.12 µM | 71.4 | 54
15.4 µM | 107 | 140
46.1 µM | 106 | 129

CC(=O)NC[C@H]1CN(c2ccc(N3CCOCC3)c(F)c2)C(=O)O1
AUC of viability dose-response curve
Settings | NOMO1 | P12-Ichikawa [2] | SEM cells [1]
HPLM + 10% dialyzed FBS | 415 | 465 | 475
RPMI 5 mM glucose + 10% FBS | 473 | 449 | 476
RPMI 5 mM glucose + 10% dialyzed FBS | 450 | 429 | 475
